Results: ChEMBL document CHEMBL2321805, “N-methyldihydroquinazolinone derivatives of Retro-2 with enhanced efficacy against Shiga toxin” (J Med Chem, 2013)

Tested on: HeLa
Test: Cytoprotective activity against shiga toxin-induced cytotoxicity in human HeLa cells at 30 uM incubated for 4 hrs prior to shiga toxin addition measured after 20 hrs by liquid scintillation counting analysis relative to Retro-2
Type: functional

Q: `Cc1ccc(C2Nc3ccccc3C(=O)N2[C@H]2C[C@@H]3CC[C@H]2C3)s1` (mixture of isomers) was tested. Which Activity did it give?
A: The Activity was 0%.

Q: For `Cc1ccc(C2N(C)c3ccccc3C(=O)N2c2ccccc2[N+](=O)[O-])s1` (racemic), which Activity is on record?
A: The Activity was 33%.

Q: How did the Activity turn out when `CN1c2ccccc2C(=O)N(c2ccccc2)C1c1ccc(C=O)s1` (racemic) was run?
A: Its Activity is 0%.

Q: Which Activity does the source give for `CN1c2ccccc2C(=O)N(c2ccccc2)C1c1ccc(CO)s1` (racemic) here?
A: Its Activity is 0%.

Q: `Cc1ccc(C2Nc3cc(F)ccc3C(=O)N2c2ccccc2)s1` (racemic) was tested. Which Activity did it give?
A: The Activity was 0%.

Q: `Cc1ccc(C2N(c3ccccc3)C(=O)c3ccccc3N2C(=O)c2ccccc2)s1` (racemic) was tested. Which Activity did it give?
A: Its Activity is 0%.

Q: With `Cc1ccc(C2N(Cc3ccccc3)c3ccccc3C(=O)N2c2ccccc2)s1` (racemic) as the compound, how does the Activity read?
A: Its Activity is 1%.

Q: For `CCN1c2ccccc2C(=O)N(c2ccccc2)C1c1ccc(C)s1` (racemic), which Activity is on record?
A: The Activity was 2.9%.

Q: `CCCN1c2ccccc2C(=O)N(c2ccccc2)C1c1ccc(C)s1` (racemic) was tested. Which Activity did it give?
A: The Activity was 0%.

Q: Which Activity does the source give for `CCCCN1c2ccccc2C(=O)N(c2ccccc2)C1c1ccc(C)s1` (racemic) here?
A: Its Activity is 0%.

Q: Which Activity does the source give for `COc1ccc(C2Nc3ccccc3C(=O)N2c2ccccc2)cc1` (racemic) here?
A: Its Activity is 10%.

Q: `CN(C)c1ccc(C2Nc3ccccc3C(=O)N2c2ccccc2)cc1` (racemic) was tested. Which Activity did it give?
A: The Activity was 48%.

Q: For `Cc1ccc(C2Nc3ccccc3C(=O)N2C23CC4CC(CC(O)(C4)C2)C3)s1` (racemic), which Activity is on record?
A: Its Activity is 0%.

Q: How did the Activity turn out when `Cc1ccc(C2Nc3ccccc3C(=O)N2Cc2ccccc2)s1` (racemic) was run?
A: The Activity was 0%.

Q: Which Activity does the source give for `Cc1ccc(C2Nc3ccccc3C(=O)N2C2CCCCC2)s1` (racemic) here?
A: The Activity was 0%.

Q: `CCCCN1C(=O)c2ccccc2NC1c1ccc(C)s1` (racemic) was tested. Which Activity did it give?
A: The Activity was 0%.

Q: For `CCC(C)N1C(=O)c2ccccc2NC1c1ccc(C)s1` (racemic), which Activity is on record?
A: The Activity was 0%.

Q: How did the Activity turn out when `Cc1ccc(C2Nc3ccccc3C(=O)N2C(C)C)s1` (racemic) was run?
A: Its Activity is 0%.

Q: For `COc1ccc(CCN2C(=O)c3ccccc3NC2c2ccc(C)s2)cc1` (racemic), which Activity is on record?
A: The Activity was 0%.

Q: Which Activity does the source give for `Cc1ccc(C2Nc3ccccc3C(=O)N2c2ccc(-c3ccccc3)cc2)s1` (racemic) here?
A: The Activity was 0%.

Q: For `Cc1ccc(C2Nc3ccccc3C(=O)N2c2ccc(C#N)cc2)s1` (racemic), which Activity is on record?
A: The Activity was 0%.

Q: Which Activity does the source give for `Cc1ccc(C2Nc3ccccc3C(=O)N2c2cccc(C(F)(F)F)c2)s1` (racemic) here?
A: The Activity was 0%.

Q: `Cc1ccc(C2Nc3ccccc3C(=O)N2c2cccnc2)s1` (racemic) was tested. Which Activity did it give?
A: Its Activity is 0%.

Q: `CN1c2ccccc2C(=O)N(c2ccccc2)C1c1ccc(CNCc2ccccc2)s1` (racemic) was tested. Which Activity did it give?
A: Its Activity is 6.2%.

Q: How did the Activity turn out when `CN1c2ccccc2C(=O)N(c2ccccc2)C1c1ccc(CCl)s1` (racemic) was run?
A: The Activity was 0%.

Q: With `CN1c2ccccc2C(=O)N(c2ccccc2)C1c1ccc(Sc2ccccc2)s1` (racemic) as the compound, how does the Activity read?
A: The Activity was 75.5%.

Q: How did the Activity turn out when `CN1c2ccccc2C(=O)N(c2ccccc2)C1c1ccc(C#N)s1` (racemic) was run?
A: Its Activity is 0%.

Q: `COc1ccc(-c2ccc(C3N(C)c4ccccc4C(=O)N3c3ccccc3)s2)cc1OC` (racemic) was tested. Which Activity did it give?
A: Its Activity is 1.5%.

Q: For `CN1c2ccccc2C(=O)N(c2ccccc2)C1c1ccc(-c2cccc([N+](=O)[O-])c2)s1` (racemic), which Activity is on record?
A: Its Activity is 0%.

Q: `COC(=O)c1ccc(-c2ccc(C3N(C)c4ccccc4C(=O)N3c3ccccc3)s2)cc1` (racemic) was tested. Which Activity did it give?
A: The Activity was 2.9%.

Q: For `CC(=O)c1ccc(-c2ccc(C3N(C)c4ccccc4C(=O)N3c3ccccc3)s2)cc1` (racemic), which Activity is on record?
A: The Activity was 0.7%.

Q: With `CN1c2ccccc2C(=O)N(c2ccccc2)C1c1ccc(-c2ccc(Oc3ccccc3)cc2)s1` (racemic) as the compound, how does the Activity read?
A: The Activity was 15.7%.

Q: Which Activity does the source give for `COc1cc(-c2ccc(C3N(C)c4ccccc4C(=O)N3c3ccccc3)s2)cc(OC)c1OC` (racemic) here?
A: The Activity was 0%.

Q: How did the Activity turn out when `COc1ccc(-c2ccc(C3N(C)c4ccccc4C(=O)N3c3ccccc3)s2)cc1` (racemic) was run?
A: Its Activity is 26.2%.

Q: With `Cc1ccc(-c2ccc(C3N(C)c4ccccc4C(=O)N3c3ccccc3)s2)cc1[N+](=O)[O-]` (racemic) as the compound, how does the Activity read?
A: The Activity was 0%.

Q: For `CN1c2ccccc2C(=O)N(c2ccccc2)C1c1ccc(-c2ccc(C#N)cc2)s1` (racemic), which Activity is on record?
A: The Activity was 0%.

Q: With `CN1c2ccccc2C(=O)N(c2ccccc2)C1c1ccc(-c2csc3ccccc23)s1` (racemic) as the compound, how does the Activity read?
A: The Activity was 0%.

Q: How did the Activity turn out when `CN1c2ccccc2C(=O)N(c2ccccc2)C1c1ccc(-c2ccc3ccccc3c2)s1` (racemic) was run?
A: The Activity was 9.7%.

Q: Which Activity does the source give for `CN1c2ccccc2C(=O)N(c2ccccc2)C1c1ccc(-c2cccc3ccccc23)s1` (racemic) here?
A: The Activity was 0%.

Q: How did the Activity turn out when `CN1c2ccccc2C(=O)N(c2ccccc2)C1c1ccc(-c2ccc3[nH]ccc3c2)s1` (racemic) was run?
A: The Activity was 0%.

Q: For `CN1c2ccccc2C(=O)N(c2ccccc2)C1c1ccc(-c2ccccn2)s1` (racemic), which Activity is on record?
A: Its Activity is 94.6%.

Q: `CN1c2ccccc2C(=O)N(c2ccccc2)C1c1ccc(-c2ccoc2)s1` (racemic) was tested. Which Activity did it give?
A: The Activity was 74.7%.

Q: For `CN1c2ccccc2C(=O)N(c2ccccc2)C1c1ccc(-c2cccs2)s1` (racemic), which Activity is on record?
A: The Activity was 84%.

Q: Which Activity does the source give for `CN1c2ccccc2C(=O)N(c2ccccc2)C1c1ccc(-n2cccc2)s1` (racemic) here?
A: The Activity was 12%.

Q: For `Cc1ccc(C2N(C)c3ccccc3C(=O)N2c2ccccc2Br)s1` (racemic), which Activity is on record?
A: The Activity was 10.5%.

Q: With `Cc1ccc(C2N(C)c3ccccc3C(=O)N2c2ccccc2C#N)s1` (racemic) as the compound, how does the Activity read?
A: Its Activity is 54%.

Q: Which Activity does the source give for `Cc1ccc(C2N(C)c3ccccc3C(=O)N2c2ccccc2Oc2ccccc2)s1` (racemic) here?
A: Its Activity is 23%.

Q: Which Activity does the source give for `Cc1ccc(C2N(C)c3ccccc3C(=O)N2c2ccccc2Sc2ccccc2)s1` (racemic) here?
A: Its Activity is 9.6%.

Q: With `Cc1ccc(C2N(C)c3ccccc3C(=O)N2c2ccccc2-c2ccccc2)s1` (racemic) as the compound, how does the Activity read?
A: Its Activity is 99%.

Q: `Cc1ccc(C2N(C)c3ccccc3C(=O)N2c2ccccc2Cc2ccccc2)s1` (racemic) was tested. Which Activity did it give?
A: Its Activity is 1%.

Q: How did the Activity turn out when `Cc1ccc(C2N(C)c3ccccc3C(=O)N2c2ccccc2C(F)(F)F)s1` (racemic) was run?
A: The Activity was 3%.

Q: `Cc1ccc(C2N(C)c3ccccc3C(=O)N2c2ccccc2OC(F)(F)F)s1` (racemic) was tested. Which Activity did it give?
A: The Activity was 4.4%.

Q: With `Cc1ccc(C2N(C)c3ccccc3C(=O)N2c2ccccc2OCc2ccccc2)s1` (racemic) as the compound, how does the Activity read?
A: Its Activity is 9.8%.

Q: How did the Activity turn out when `Cc1csc(C2Nc3ccccc3C(=O)N2c2ccccc2)c1` (racemic) was run?
A: The Activity was 1%.

Q: With `CCCc1ccc(C2Nc3ccccc3C(=O)N2c2ccccc2)s1` (racemic) as the compound, how does the Activity read?
A: The Activity was 54%.

Q: With `Cc1ccc(C2Nc3ccccc3C(=O)N2c2ccncc2)s1` (racemic) as the compound, how does the Activity read?
A: The Activity was 0%.

Q: With `Cc1ccc(C2Nc3ccccc3C(=O)N2c2ccncn2)s1` (racemic) as the compound, how does the Activity read?
A: Its Activity is 0.5%.

Q: With `Cc1ccc(C2Nc3ccccc3C(=O)N2c2ccc(Br)cc2)s1` (racemic) as the compound, how does the Activity read?
A: The Activity was 0%.

Q: How did the Activity turn out when `Cc1ccc(C2Nc3ccccc3C(=O)N2c2cccc(Br)c2)s1` (racemic) was run?
A: The Activity was 0%.

Q: For `Cc1ccc(C2Nc3ccccc3C(=O)N2c2ccccc2Br)s1` (racemic), which Activity is on record?
A: The Activity was 0%.

Q: Which Activity does the source give for `Cc1ccc(C2Nc3ccccc3C(=O)N2c2ccc(Cl)cc2)s1` (racemic) here?
A: The Activity was 0%.

Q: `Cc1ccc(C2Nc3ccccc3C(=O)N2c2cccc(Cl)c2)s1` (racemic) was tested. Which Activity did it give?
A: The Activity was 54%.

Q: Which Activity does the source give for `CSc1ccccc1N1C(=O)c2ccccc2NC1c1ccc(C)s1` (racemic) here?
A: The Activity was 75%.

Q: How did the Activity turn out when `Cc1ccc(C2Nc3c(C)cccc3C(=O)N2c2ccccc2)s1` (racemic) was run?
A: The Activity was 4%.

Q: Which Activity does the source give for `Cc1ccc2c(c1)C(=O)N(c1ccccc1)C(c1ccc(C)s1)N2` (racemic) here?
A: Its Activity is 11.2%.

Q: How did the Activity turn out when `COc1ccc2c(c1)C(=O)N(c1ccccc1)C(c1ccc(C)s1)N2` (racemic) was run?
A: Its Activity is 2%.
